Reference: patent US9181185B2, “Heteroaryl compounds as sodium channel blockers” (Purdue Pharma L.P., priority 2011, dated 2015)
Where two headings read alike, the source gives them in different places.

Columns and labels:
human Nav1.7 = human Nav1.7 (Homo sapiens (Human), UniProt Q15858); experiment: FLIPR or FLIPR TETRA sodium dye assay with KCl and test article pre-incubation; assay type: cell-based
hNav1.7 = hNav1.7 (Homo sapiens (Human), UniProt Q15858); experiment: Electrophysiology (EP) assay, whole-cell patch clamp; assay type: cell-based; conditions: hNav1.7 HEK-293 cells; for Kd: Kf (method describes resting block dissociation constant Kr), read-out: EP Nav 1.7 Kf (μM) ± SEM; for Ki: affinity for inactivated state, read-out: EP Nav 1.7 Ki (μM) ± SEM
Chain of hNav1.7 (Q15858 other isoform, or with tags, fused parts or gaps): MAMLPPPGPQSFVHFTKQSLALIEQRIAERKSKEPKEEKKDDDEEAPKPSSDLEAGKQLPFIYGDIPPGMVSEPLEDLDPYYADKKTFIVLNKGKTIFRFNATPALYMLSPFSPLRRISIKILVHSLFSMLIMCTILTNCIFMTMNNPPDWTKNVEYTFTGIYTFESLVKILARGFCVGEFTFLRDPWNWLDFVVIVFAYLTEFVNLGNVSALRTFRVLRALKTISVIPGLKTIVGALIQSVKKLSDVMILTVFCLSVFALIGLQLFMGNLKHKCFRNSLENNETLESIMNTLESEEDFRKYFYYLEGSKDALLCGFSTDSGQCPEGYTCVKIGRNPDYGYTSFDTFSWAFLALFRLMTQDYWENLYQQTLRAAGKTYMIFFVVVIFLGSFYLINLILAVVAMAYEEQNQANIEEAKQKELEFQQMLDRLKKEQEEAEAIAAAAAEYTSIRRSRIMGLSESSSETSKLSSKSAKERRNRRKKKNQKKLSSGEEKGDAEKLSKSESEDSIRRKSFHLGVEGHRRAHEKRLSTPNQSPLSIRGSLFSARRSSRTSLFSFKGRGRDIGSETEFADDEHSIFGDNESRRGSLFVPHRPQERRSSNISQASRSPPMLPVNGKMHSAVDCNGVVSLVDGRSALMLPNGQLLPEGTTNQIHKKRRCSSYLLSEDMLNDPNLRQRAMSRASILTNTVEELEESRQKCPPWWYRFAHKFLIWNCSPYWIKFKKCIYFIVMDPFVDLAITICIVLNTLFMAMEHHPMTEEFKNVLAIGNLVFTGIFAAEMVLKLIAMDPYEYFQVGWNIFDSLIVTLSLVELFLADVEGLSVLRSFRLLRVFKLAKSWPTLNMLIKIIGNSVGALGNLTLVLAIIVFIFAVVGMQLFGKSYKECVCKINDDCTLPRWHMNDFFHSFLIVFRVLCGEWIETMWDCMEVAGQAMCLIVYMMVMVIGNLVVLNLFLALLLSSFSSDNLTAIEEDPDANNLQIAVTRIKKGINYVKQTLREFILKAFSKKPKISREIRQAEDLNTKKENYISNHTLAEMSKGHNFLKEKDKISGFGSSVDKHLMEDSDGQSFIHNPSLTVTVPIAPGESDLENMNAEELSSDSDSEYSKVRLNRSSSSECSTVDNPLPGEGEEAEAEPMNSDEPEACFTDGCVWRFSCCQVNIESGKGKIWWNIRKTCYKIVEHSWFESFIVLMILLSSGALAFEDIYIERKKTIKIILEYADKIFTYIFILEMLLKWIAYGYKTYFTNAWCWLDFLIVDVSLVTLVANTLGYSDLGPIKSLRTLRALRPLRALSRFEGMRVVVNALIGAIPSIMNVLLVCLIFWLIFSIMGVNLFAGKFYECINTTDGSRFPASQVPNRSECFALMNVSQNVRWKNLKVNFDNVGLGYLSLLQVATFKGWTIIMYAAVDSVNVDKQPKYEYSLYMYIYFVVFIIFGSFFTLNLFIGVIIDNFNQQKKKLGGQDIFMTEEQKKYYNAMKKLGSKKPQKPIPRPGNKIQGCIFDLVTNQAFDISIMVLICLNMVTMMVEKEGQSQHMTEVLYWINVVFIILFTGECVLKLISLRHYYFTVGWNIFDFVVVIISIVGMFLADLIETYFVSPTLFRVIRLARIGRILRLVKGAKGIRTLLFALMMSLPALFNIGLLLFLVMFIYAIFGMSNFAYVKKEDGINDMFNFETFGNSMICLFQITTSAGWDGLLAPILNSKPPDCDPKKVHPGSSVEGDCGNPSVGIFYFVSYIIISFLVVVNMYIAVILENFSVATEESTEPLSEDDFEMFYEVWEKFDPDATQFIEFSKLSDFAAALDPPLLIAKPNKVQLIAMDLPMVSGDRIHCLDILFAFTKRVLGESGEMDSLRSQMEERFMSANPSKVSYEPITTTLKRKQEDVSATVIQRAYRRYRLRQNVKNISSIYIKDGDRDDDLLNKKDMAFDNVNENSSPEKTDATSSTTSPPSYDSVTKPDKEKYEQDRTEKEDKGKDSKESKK
Method: Cells: The hNav1.7 expressing HEK-293 cells were plated on 35 mm culture dishes pre-coated with poly-D-lysine in standard DMEM culture media (Mediatech, Inc., Herndon, Va.) and incubated in a 5% CO2 incubator at 37° C. Cultured cells were used approximately 12-48 hours after plating.
Electrophysiology: On the day of experimentation, the 35 mm dish was placed on the stage of an inverted microscope equipped with a perfusion system that continuously perfuses the culture dish with fresh recording media. A gravity driven superfusion system was used to apply test solutions directly to the cell under evaluation. This system consists of an array of glass pipette glass connected to a motorized horizontal translator. The outlet of the shooter was positioned approximately 100 μm from the cell of interest.
Whole cell currents were recorded using the whole-cell patch clamp configuration using an Axopatch 200B amplifier (Axon Instruments, Foster City Calif.), 1322A A/D converter (Axon Instruments) and pClamp software (v. 8; Axon Instruments) and stored on a personal computer. Gigaseals were formed and the whole-cell configuration was established in voltage clamp mode, and membrane currents generated by hNav1.7 were recorded in gap-free mode. Borosilicate glass pipettes have resistance values between 1.5 and 2.0 MΩ when filled with pipette solution and series resistance (<5 MΩ) was compensated 75-80%. Signals were sampled at 50 kHz and low pass filtered at 3 kHz.
Voltage Protocols: After establishing the whole-cell configuration in voltage clamp mode, voltage protocols were run to establish the 1) test potential, 2) holding potential, and 3) the conditioning potential for each cell.
After establishing the whole-cell configuration in voltage clamp mode, a standard I-V protocol was run to determine the potential at which the maximal current (Imax) is elicited. This potential was the test potential (Vt). To determine a conditioning potential at which 100% of channels were in the inactivated state, a standard steady-state inactivation (SSIN) protocol was run using a series of fifteen 100 ms-long depolarizing prepulses, incrementing in 10 mV steps, immediately followed by a 5 ms testing pulse, Vt, to Vmax. This protocol also permitted determination of the holding potential at which all channels are in the resting state.
For compounds causing significant retardation of recovery from inactivation, an estimate of the affinity for the inactivated state of the channel (Ki) was generated using the following protocol. From the negative, no residual inactivation, holding potential, the cell was depolarized to the conditioning voltage for 2-5 seconds, returned to the negative holding potential for 10-20 ms to relieve fast inactivation and then depolarized to the test potential for ˜15 ms. This voltage protocol was repeated every 10-15 seconds, first to establish a baseline in the absence of the test compound, then in the presence of the test compound.
After a stable baseline was established, the test compound was applied and block of the current elicited by the test pulse assessed. In some cases, multiple cumulative concentrations were applied to identify a concentration that blocked between 40-60% of this current. Washout of the compound was attempted by superfusing with control solution once steady-state block was observed. An estimate of the Ki was calculated as follows: Ki=[drug]*{FR/(1−FR)}, Eq. 1 where [drug] is the concentration of a drug, and FR=I(after drug)/l(control), Eq. 2 where I is the peak current amplitude. If multiple concentrations were used, Ki was determined from the fit of a logistic equation to FRs plotted against corresponding drug concentrations.
In the alternative, the voltage clamp protocol to examine hNav1.7 currents was as follows. […]

[1] = read-out: FLIPR Nav 1.7 IC50 (μM) ± SEM
[2] = recombinant HEK293 cells expressing human Nav1.7, CoroNa Green sodium dye, veratridine + scorpion venom, read-out: FLIPR Nav 1.7 IC50 (μM) ± SEM

Chain of human Nav1.7 (Q15858 other isoform, or with tags, fused parts or gaps): as above

SMILES	IC50 (human Nav1.7; [1]) [µM]	IC50 (human Nav1.7; [2]) [µM]	also measured
NC(=O)[C@@H](O)[C@H](O)c1cn(-c2ccc(Oc3ccc(C(F)(F)F)cn3)cc2)c2ccccc12 [Compound 8, (2S,3R)-2,3-Dihydroxy-3-(1-(4-((5-(trifluoromethyl)pyridin-2-yl)oxy)phenyl)-1H-indol-3-yl)propanamide]	0.193 ± 0.049		
NC(=O)[C@H](O)[C@@H](O)c1ccnc(-c2ccc(Oc3ccc(F)cc3)cc2)n1 [Compound 26, (2R,3S)-3-(2-(4-(4-fluorophenoxy)phenyl)pyrimidin-4-yl)-2,3-dihydroxypropanamide]		0.625 ± 0.058	Kd (hNav1.7): 97.9 ± 23.1 µM; Ki (hNav1.7): 2.26 ± 0.61 µM
NC(=O)[C@H](O)[C@@H](O)c1cccc(-c2ccc(Oc3ccc(C(F)(F)F)cn3)cc2)n1		1.69 ± 0.019	
NC(=O)[C@@H](O)[C@H](O)c1cccc(-c2ccc(Oc3ccc(Cl)cn3)cc2)n1	1.19 ± 0.074		
N#Cc1ccc(Oc2ccc(-c3cccc([C@@H](O)[C@H](O)C(N)=O)n3)cc2)cc1		0.262 ± 0.017	
CCOC(=O)[C@@H](O)[C@H](O)c1cn(-c2ccc(Oc3ccc(C(F)(F)F)cn3)cc2)c2ccccc12 [Compound 6, (2S,3R)-Ethyl 2,3-dihydroxy-3-(1-(4-((5-(trifluoromethyl)pyridin-2-yl)oxy)phenyl)-1H-indol-3-yl)propanoate]		0.152 ± 0.031	
CNC(=O)[C@@H](O)[C@H](O)c1cn(-c2ccc(Oc3ccc(C(F)(F)F)cn3)cc2)c2ccccc12 [Compound 7, (2S,3R)-2,3-Dihydroxy-N-methyl-3-(1-(4-((5-(trifluoromethyl)pyridin-2-yl)oxy)phenyl)-1H-indol-3-yl)propanamide]		0.282 ± 0.002	
NC(=O)[C@H](O)[C@@H](O)c1cccc(-c2ccc(Oc3ccc(C(F)(F)F)cc3)cc2)n1		0.383 ± 0.072	
NC(=O)[C@H](O)[C@@H](O)c1cn(-c2ccc(Oc3ccc(C(F)(F)F)cn3)cc2)c2ccccc12 [Compound 5, (2R,3S)-2,3-Dihydroxy-3-(1-(4-((5-(trifluoromethyl)pyridin-2-yl)oxy)phenyl)-1H-indol-3-yl)propanamide]	0.314 ± 0.038		
N#Cc1ccc(Oc2ccc(-c3cccc([C@@H](O)[C@H](O)C(N)=O)n3)cc2)cc1C(F)(F)F		0.461 ± 0.045	
NC(=O)[C@H](O)[C@@H](O)c1cccc(-c2ccc(Oc3ccc(F)cc3)cc2)n1	1.84 ± 0.309		
N#Cc1cc(Oc2ccc(-c3cccc([C@H](O)[C@@H](O)C(N)=O)n3)cc2)ccc1C(F)(F)F [Compound 19, (2R,3S)-3-(6-(4-(3-Cyano-4-(trifluoromethyl)phenoxy)phenyl)pyridin-2-yl)-2,3-dihydroxypropanamide]	0.244 ± 0.05		Kd (hNav1.7): 17.1 ± 4.24 µM; Ki (hNav1.7): 0.347 ± 0.07 µM
CCOC(=O)[C@@H](O)[C@H](O)c1cccc(-c2ccc(Oc3ccc(C(F)(F)F)c(C#N)c3)cc2)n1 [Compound 14, (2S,3R)-Ethyl 3-(6-(4-(3-cyano-4-(trifluoromethyl)phenoxy)phenyl)pyridin-2-yl)-2,3-dihydroxypropanoate]			IC50 (human Nav1.7): 0.246 ± 0.031 µM
N#Cc1ccc(Oc2ccc(-c3cccc([C@H](O)[C@@H](O)C(N)=O)n3)cc2)cc1C(F)(F)F		0.489 ± 0.04	
NC(=O)[C@H](O)[C@@H](O)c1cccc(-c2ccc(Oc3ccc(Cl)nc3)cc2)n1		0.804 ± 0.044	
NC(=O)[C@@H](O)[C@H](O)c1cccc(-c2ccc(Oc3ccc(C(F)(F)F)cn3)cc2)n1		0.711 ± 0.05	
NC(=O)[C@@H](O)[C@H](O)c1cccc(-c2ccc(Oc3ccc(C(F)(F)F)cc3)cc2)n1		0.13 ± 0.025	
NC(=O)[C@@H](O)[C@H](O)c1cccc(-c2ccc(Oc3ccc(F)cc3)cc2)n1	1.41 ± 0.281		
N#Cc1cc(Oc2ccc(-c3cccc([C@@H](O)[C@H](O)C(N)=O)n3)cc2)ccc1C(F)(F)F [Compound 15, (2S,3R)-3-(6-(4-(3-Cyano-4-(trifluoromethyl)phenoxy)phenyl)pyridin-2-yl)-2,3-dihydroxypropanamide]	0.304 ± 0.022		Kd (hNav1.7): 32.9 ± 6.89 µM; Ki (hNav1.7): 0.917 ± 0.05 µM
NC(=O)[C@@H](O)[C@H](O)c1cccc(-c2ccc(Oc3ccc(Cl)nc3)cc2)n1		0.376 ± 0.057	
N#Cc1ccc(Oc2ccc(-c3cccc([C@H](O)[C@@H](O)C(N)=O)n3)cc2)cc1		0.69 ± 0.071	
NC(=O)[C@H](O)[C@@H](O)c1cccc(-c2ccc(Oc3ccc(Cl)cn3)cc2)n1	1.44 ± 0.078		
